This is an account of results in patent US20250145594A1, “MODULATORS OF THE INTEGRATED STRESS PATHWAY” (Calico Life Sciences LLC, priority 2020, published 2025).

A value given as a limit tells only on which side of the number the result lay.

The subject of this experiment is ATF4 luciferase reporter in HEK293T cells. As to the kind of experiment: ATF4-Luc assay (in vitro model of VWMD). The experiment is classed as cell-based, human. The note with it: Homo sapiens, HEK-293T, 7 h, HEK293T cells carrying the ATF4 luciferase reporter, 1 μg/mL tunicamycin, One Glo luminescence. The essentials:
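Stable HEK293T line expressing firefly luciferase behind the human ATF4 5′-UTR, treated with 1 μg/mL tunicamycin plus compound for 7 hours. Luminescence read with One Glo; EC50 determined.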
(In a reporter assay the amount or activity of a reporter protein is the signal.)
For `O=C(NC12CC(n3cc(-c4ccc(OC(F)(F)F)cn4)cn3)(C1)C2)[C@@H]1C[C@@H](O)c2cc(C(F)(F)F)ccc2O1` [Compound 550, (2S,4R)-4-hydroxy-N-(3-{4-[5-(trifluoromethoxy)pyridin-2-yl]-1H-pyrazol-1-yl}bicyclo[1.1.1]pentan-1-yl)-6-(trifluoromethyl)-3,4-dihydro-2H-1-benzopyran-2-carboxamide], the EC50 is less than 10 nM. Under `O=C(CO[C@H]1C[C@@H](OC(F)(F)F)C1)NC12CCC(NC(=O)[C@@H]3C[C@@H](O)c4cc(Cl)ccc4O3)(CC1)C[C@@H]2O` (single isomer, unassigned) [Compound 279] stands less than 10 nM. Then `O=C(NC12CC(n3cc(CCCOC(F)(F)F)cn3)(C1)C2)[C@H]1CC(O)c2cc(Cl)ccc2O1` (stereo in doubt) [Compound 463, (2R,4R)-6-chloro-4-hydroxy-N-(3-{4-[3-(trifluoromethoxy)propyl]-1H-pyrazol-1-yl}bicyclo[1.1.1]pentan-1-yl)-3,4-dihydro-2H-1-benzopyran-2-carboxamide], with less than 10 nM; and `O=C(N[C@H]1CC[C@H](n2cc(N3CC[C@@H](OC(F)(F)F)C3)cn2)CC1)[C@H]1C[C@@H](O)c2cc(Cl)ccc2O1` [Compound 581, (2R,4R)-6-chloro-4-hydroxy-N-[(1R,4R)-4-{4-[(3R)-3-(trifluoromethoxy)pyrrolidin-1-yl]-1H-pyrazol-1-yl}cyclohexyl]-3,4-dihydro-2H-1-benzopyran-2-carboxamide], with 10 to 50 nM. Under `O=C(NC12CC(c3ccnc(OCCOC(F)(F)F)n3)(C1)C2)[C@H]1C[C@@H](O)c2cc(Cl)c(F)cc2O1` [Compound 469, (2R,4R)-6-chloro-7-fluoro-4-hydroxy-N-(3-{2-[2-(trifluoromethoxy)ethoxy]pyrimidin-4-yl)bicyclo[1.1.1]pentan-1-yl}-3,4-dihydro-2H-1-benzopyran-2-carboxamide] stands less than 10 nM; under `COc1ccc2nn(C34CC(NC(=O)[C@H]5C[C@@H](O)c6cc(C(F)(F)F)c(F)cc6O5)(C3)C4)cc2n1` (racemic) [Compound 655, rac-(2R,4R)-7-fluoro-4-hydroxy-N-[3-(5-methoxy-2H-pyrazolo[4,3-b]pyridin-2-yl)bicyclo[1.1.1]pentan-1-yl]-6-(trifluoromethyl)-3,4-dihydro-2H-1-benzopyran-2-carboxamide], less than 10 nM; under `Cc1ccc(-c2cnn(C34CC(NC(=O)[C@H]5C[C@@H](O)c6cc(C(F)(F)F)ccc6O5)(C3)C4)c2)nc1` [Compound 555, (2R,4R)-4-hydroxy-N-{3-[4-(5-methylpyridin-2-yl)-1H-pyrazol-1-yl]bicyclo[1.1.1]pentan-1-yl}-6-(trifluoromethyl)-3,4-dihydro-2H-1-benzopyran-2-carboxamide], less than 10 nM. For `O=C(N[C@H]1CC[C@H](n2cc(OCCOC(F)(F)F)cn2)CC1)[C@H]1C[C@H](O)c2cc(C(F)(F)F)c(F)cc2O1` [Compound 486, (2R,4R)-7-fluoro-4-hydroxy-N-[(1r,4R)-4-{4-[2-(trifluoromethoxy)ethoxy]-1H-pyrazol-1-yl}cyclohexyl]-6-(trifluoromethyl)-3,4-dihydro-2H-1-benzopyran-2-carboxamide], the concentration for a half-maximal effect (EC50) was less than 10 nM.

`O=C(NC12CC(n3cc(C(=O)N4CC[C@H](OC(F)(F)F)C4)cn3)(C1)C2)[C@H]1C[C@@H](O)c2cc(Cl)ccc2O1` [Compound 371, (2R,4R)-6-chloro-4-hydroxy-N-(3-{4-[(3S)-3-(trifluoromethoxy)pyrrolidine-1-carbonyl]-1H-pyrazol-1-yl}bicyclo[1.1.1]pentan-1-yl)-3,4-dihydro-2H-1-benzopyran-2-carboxamide]: the EC50 is less than 10 nM. As to `O=C(NC12CC(n3cc(-c4cnc(C(F)(F)F)c(F)c4)cn3)(C1)C2)[C@H]1C[C@@H](O)c2cc(Cl)ccc2O1` [Compound 347, (2R,4R)-6-chloro-N-(3-{4-[5-fluoro-6-(trifluoromethyl)pyridin-3-yl]-1H-pyrazol-1-yl}bicyclo[1.1.1]pentan-1-yl)-4-hydroxy-3,4-dihydro-2H-1-benzopyran-2-carboxamide], the 50% effective concentration (EC50) is less than 10 nM. Then `O=C(N[C@H]1CC[C@H](n2cc(-c3ccc(OC(F)(F)F)cn3)cn2)CC1)[C@H]1C[C@@H](O)c2cc(Cl)ccc2O1` [Compound 481, (2R,4R)-6-chloro-4-hydroxy-N-[(1r,4R)-4-{4-[5-(trifluoromethoxy)pyridin-2-yl]-1H-pyrazol-1-yl}cyclohexyl]-3,4-dihydro-2H-1-benzopyran-2-carboxamide], with less than 10 nM; and `O=C(CO[C@H]1C[C@@H](OC(F)(F)F)C1)NC12CCC(NC(=O)[C@H]3C[C@@H](O)c4cc(Cl)c(F)cc4O3)(CC1)C[C@@H]2O` [Compound 488, (2R,4R)-6-chloro-7-fluoro-4-hydroxy-N-[(3S)-3-hydroxy-4-(2-{[(1s,3R)-3-(trifluoromethoxy)cyclobutyl]oxy}acetamido)bicyclo[2.2.2]octan-1-yl]-3,4-dihydro-2H-1-benzopyran-2-carboxamide], with less than 10 nM. Then `O=C(NC12CC(n3cc(-c4ccc(C(F)(F)F)cn4)cn3)(C1)C2)[C@@H]1CNc2cc(Cl)ccc2O1` [Compound 573, (2S)-6-chloro-N-(3-{4-[5-(trifluoromethyl)pyridin-2-yl]-1H-pyrazol-1-yl}bicyclo[1.1.1]pentan-1-yl)-3,4-dihydro-2H-1,4-benzoxazine-2-carboxamide], with 10 to 50 nM; and `O=C(CO[C@H]1C[C@@H](OC(F)(F)F)C1)NC12CC(NC(=O)[C@@H]3C[C@@H](O)c4cc(Cl)ccc4O3)(C1)C2` [Compound 208, (2S,4R)-6-chloro-4-hydroxy-N-[3-(2-{[cis-3-(trifluoromethoxy)cyclobutyl]oxy}acetamido)bicyclo[1.1.1]pentan-1-yl]-3,4-dihydro-2H-1-benzopyran-2-carboxamide], with less than 10 nM; and `O=C(COc1ccc(C(F)(F)F)cc1O)NC12CC(n3cc([C@H]4C[C@@H](OC(F)(F)F)C4)nn3)(C1)C2` [Compound 615, 2-[2-hydroxy-4-(trifluoromethyl)phenoxy]-N-(3-{4-[(1s,3s)-3-(trifluoromethoxy)cyclobutyl]-1H-1,2,3-triazol-1-yl}bicyclo[1.1.1]pentan-1-yl)acetamide], with 10 to 50 nM.

`O=C(NC12CC(n3cc(-c4ccc(C(F)(F)F)cn4)cn3)(C1)C2)[C@H]1C[C@@H](O)c2cc(Cl)c(Cl)cc2O1` [Compound 567, (2R,4R)-6,7-dichloro-4-hydroxy-N-(3-{4-[5-(trifluoromethyl)pyridin-2-yl]-1H-pyrazol-1-yl}bicyclo[1.1.1]pentan-1-yl)-3,4-dihydro-2H-1-benzopyran-2-carboxamide]: the EC50 was less than 10 nM. Then `O=C(NC12CC(n3cc([C@@H]4CC[C@@H](OC(F)(F)F)C4)nn3)(C1)C2)[C@H]1C[C@@H](O)c2cc(Cl)ccc2O1` (mixture of isomers) [Compound 538, (2R,4R)-6-chloro-4-hydroxy-N-(3-{4-[(1RS,3RS)-3-(trifluoromethoxy)cyclopentyl]-1H-1,2,3-triazol-1-yl}bicyclo[1.1.1]pentan-1-yl)-3,4-dihydro-2H-1-benzopyran-2-carboxamide], with less than 10 nM.

In general, EC50 refers to the concentration that produces a half-maximal response.
